Molecules are shown by their SMILES. Converted amounts (≈) assume the structure as drawn. The source made the active and inactive calls. The calls are words filed in the database; no cut-off is given here. Some results are limits rather than exact numbers.

Our source for the IC50 and Activity values is ChEMBL document CHEMBL1153901, “Synthesis and antibacterial activity evaluation of metronidazole-triazole conjugates” (Bioorg Med Chem Lett, 2009).

What all share (format): functional, organism-based
For experiment [1], the system named is Staphylococcus epidermidis. The experiment in a line: Antibacterial activity against Staphylococcus epidermidis after 24 hrs by […] microdilution method. (Dilution methods test growth across graded concentrations, often in twofold steps.)
Experiment [2] concerns Staphylococcus aureus. Briefly: Antibacterial activity against Staphylococcus aureus after 24 hrs by […] microdilution method.
Experiment [3] relates to Escherichia coli. Briefly: Antibacterial activity against Escherichia coli after 24 hrs by NCCLS microdilution method.
The subject of experiment [4] is Pseudomonas aeruginosa. The experiment in a line: Antibacterial activity against Pseudomonas aeruginosa after 24 hrs by […] microdilution method.
Experiment [5] concerns Candida albicans. Briefly: Antifungal activity against Candida albicans.
The subject of experiment [6] is Geotrichum candidum. Briefly: Antifungal activity against Geotrichum candidum.
The subject of experiment [7] is Nakaseomyces glabratus. Briefly: Antifungal activity against Candida glabrata.

As usually defined, the IC50 is the concentration at which inhibition is half-maximal. The low end stands for higher potency, the high end for lower potency. As for `Cc1ncc([N+](=O)[O-])n1CCn1cc(CCO)nn1`, the IC50 in experiment [1], in experiment [2], in experiment [3] and in experiment [4] was above 500 µg/mL throughout.
Regarding `Cc1ncc([N+](=O)[O-])n1CCn1cc(COc2ccc([N+](=O)[O-])cc2)nn1`, the IC50 in experiment [1], in experiment [2], in experiment [3] and in experiment [4] was above 500 µg/mL in each case.
Turning to `Cc1ncc([N+](=O)[O-])n1CCn1cc(COc2ccc(Cl)cc2)nn1`, the result in experiment [5], in experiment [6] and in experiment [7] was inactive. The IC50 in experiment [1] is above 500 µg/mL; in experiment [2], 0.13 µg/mL (≈ 0.358 µM); in experiment [3], 0.003 µg/mL (≈ 0.00827 µM); in experiment [4] it was 0.02 µg/mL (≈ 0.0551 µM).
On to `COCc1cn(CCn2c([N+](=O)[O-])cnc2C)nn1`, for which the IC50 in experiment [1], in experiment [2], in experiment [3] and in experiment [4] was above 500 µg/mL throughout.
Turning to `Cc1ncc([N+](=O)[O-])n1CCn1cc(CO)nn1`, the outcome in experiment [5], in experiment [6] and in experiment [7] was inactive. Also, the IC50 in experiment [1] was 0.35 µg/mL (≈ 1.39 µM); in experiment [2] it was 0.35 µg/mL (≈ 1.39 µM); in experiment [3], 0.091 µg/mL (≈ 0.361 µM); in experiment [4], 0.18 µg/mL (≈ 0.714 µM).
`Cc1ccccc1OCc1cn(CCn2c([N+](=O)[O-])cnc2C)nn1`: the outcome in experiment [5], in experiment [6] and in experiment [7] was inactive. The IC50 was above 500 µg/mL in experiment [1], above 500 µg/mL in experiment [2], 0.028 µg/mL (≈ 0.0818 µM) in experiment [3] and above 500 µg/mL in experiment [4].
Consider `Cc1ccc(OCc2cn(CCn3c([N+](=O)[O-])cnc3C)nn2)cc1`, for which the result in experiment [5], in experiment [6] and in experiment [7] was inactive. For the same molecule, the IC50 was above 500 µg/mL in experiment [1], 0.13 µg/mL (≈ 0.38 µM) in experiment [2], 0.06 µg/mL (≈ 0.175 µM) in experiment [3] and 0.03 µg/mL (≈ 0.0876 µM) in experiment [4].
`Cc1ncc([N+](=O)[O-])n1CCn1cc(CBr)nn1`: the IC50 in experiment [1], in experiment [2], in experiment [3] and in experiment [4] was above 500 µg/mL in each case.
Turning to `Cc1ncc([N+](=O)[O-])n1CCn1cc(COC2CCCCO2)nn1` (stereo not drawn), the IC50 in experiment [1], in experiment [2], in experiment [3] and in experiment [4] was above 500 µg/mL throughout.
For the molecule `Cc1ncc([N+](=O)[O-])n1CCn1cc(COc2ccccc2C=O)nn1`, the IC50 in experiment [1], in experiment [2], in experiment [3] and in experiment [4] was above 500 µg/mL in each case.
`Cc1cccc(OCc2cn(CCn3c([N+](=O)[O-])cnc3C)nn2)c1`: the outcome in experiment [5], in experiment [6] and in experiment [7] was inactive. The IC50 was above 500 µg/mL in experiment [1], 0.26 µg/mL (≈ 0.759 µM) in experiment [2], 0.067 µg/mL (≈ 0.196 µM) in experiment [3] and 0.068 µg/mL (≈ 0.199 µM) in experiment [4].
Take `Cc1ncc([N+](=O)[O-])n1CCn1cc(COc2ccccc2[N+](=O)[O-])nn1`: the IC50 in experiment [1], in experiment [2], in experiment [3] and in experiment [4] was above 500 µg/mL in each case.
Consider `Cc1ncc([N+](=O)[O-])n1CCn1cc(COc2ccccc2Cl)nn1`, for which the IC50 in experiment [1], in experiment [2], in experiment [3] and in experiment [4] was above 500 µg/mL throughout.
Regarding `Cc1ncc([N+](=O)[O-])n1CCn1cc(COc2ccccc2)nn1`, the IC50 in experiment [1] was above 500 µg/mL; in experiment [2], above 500 µg/mL; in experiment [3] it was 0.67 µg/mL (≈ 2.04 µM); in experiment [4], 0.13 µg/mL (≈ 0.396 µM).
For `CCC(=O)OCc1cn(CCn2c([N+](=O)[O-])cnc2C)nn1`, the IC50 in experiment [1], in experiment [2], in experiment [3] and in experiment [4] was above 500 µg/mL each time.
Consider `Cc1ncc([N+](=O)[O-])n1CCn1cc(C2(O)CCCCC2)nn1`, for which the outcome in experiment [5], in experiment [6] and in experiment [7] was inactive. Also, the IC50 was above 500 µg/mL in experiment [1], above 500 µg/mL in experiment [2], above 500 µg/mL in experiment [3] and 0.18 µg/mL (≈ 0.562 µM) in experiment [4].
As to `CN(C)[C@@H]1C(O)=C(C(N)=O)C(=O)[C@@]2(O)C(O)=C3C(=O)c4c(O)cccc4[C@@](C)(O)[C@H]3C[C@@H]12` [TETRACYCLINE], the IC50 was 0.08 µg/mL (≈ 0.18 µM) in experiment [1], 0.12 µg/mL (≈ 0.27 µM) in experiment [2], 0.09 µg/mL (≈ 0.203 µM) in experiment [3] and 0.06 µg/mL (≈ 0.135 µM) in experiment [4].
With `Cc1ncc([N+](=O)[O-])n1CCn1cc(-c2cccnc2)nn1`, the outcome in experiment [5], in experiment [6] and in experiment [7] was inactive. Further, the IC50 is above 500 µg/mL in experiment [1], 0.31 µg/mL (≈ 1.04 µM) in experiment [2], above 500 µg/mL in experiment [3] and above 500 µg/mL in experiment [4].
As for `Cc1ncc([N+](=O)[O-])n1CCn1cc(-c2ccccc2)nn1`, the result in experiment [5], in experiment [6] and in experiment [7] was inactive. Besides, the IC50 in experiment [1] was above 500 µg/mL; in experiment [2], above 500 µg/mL; in experiment [3] it was 0.13 µg/mL (≈ 0.436 µM); in experiment [4] it was 0.13 µg/mL (≈ 0.436 µM).
Regarding `Cc1ncc([N+](=O)[O-])n1CCn1cc(COc2ccc(C=O)cc2)nn1`, the result in experiment [5], in experiment [6] and in experiment [7] was inactive. Besides, the IC50 was above 500 µg/mL in experiment [1], above 500 µg/mL in experiment [2], 0.07 µg/mL (≈ 0.196 µM) in experiment [3] and 0.07 µg/mL (≈ 0.196 µM) in experiment [4].
For `Cc1ncc([N+](=O)[O-])n1CCn1cc(-c2ccccn2)nn1`, the outcome in experiment [5], in experiment [6] and in experiment [7] was inactive. The IC50 was above 500 µg/mL in experiment [1], 0.13 µg/mL (≈ 0.434 µM) in experiment [2], 0.12 µg/mL (≈ 0.401 µM) in experiment [3] and 0.13 µg/mL (≈ 0.434 µM) in experiment [4].
For `CC(=O)c1ccc(OCc2cn(CCn3c([N+](=O)[O-])cnc3C)nn2)cc1`, the IC50 in experiment [1], in experiment [2], in experiment [3] and in experiment [4] was above 500 µg/mL each time.
